Source: PMC6422671 (British Journal of Clinical Pharmacology, 2019)

Experiment: Clinical laboratory findings: haematology; data mean (standard deviation)
Type: in vivo, healthy men
Text: Data are mean (standard deviation).

C[C@@H](N)c1cc(Cl)ccc1Cn1c(=S)[nH]c(=O)c2[nH]ccc21 [AZD4831]
Basophils (45 mg fed, 24 h): 0.03 (0.01) 10^9 L^–1 | Eosinophils (45 mg fed, 24 h): 0.19 (0.10) 10^9 L^–1 | Erythrocyte MCH (45 mg fed, 24 h): 30.2 (2.0) pg | Erythrocyte MCH concentration (45 mg fed, 24 h): 343 (14) g L^–1 | Erythrocyte MCV (45 mg fed, 24 h): 88.0 (5.6) fL | Erythrocytes (45 mg fed, 24 h): 4.74 (0.15) 10^12 L^–1 | Haematocrit (45 mg fed, 24 h): 0.42 (0.03) ratio | Haemoglobin (45 mg fed, 24 h): 143 (9) g L^–1 | Leukocytes (45 mg fed, 24 h): 5.51 (0.85) 10^9 L^–1 | Lymphocytes (45 mg fed, 24 h): 1.76 (0.61) 10^9 L^–1 | Monocytes (45 mg fed, 24 h): 0.34 (0.16) 10^9 L^–1 | Neutrophils (45 mg fed, 24 h): 3.11 (0.79) 10^9 L^–1 | Platelets (45 mg fed, 24 h): 227 (50) 10^9 L^–1 | Reticulocytes (45 mg fed, 24 h): 77.4 (5.4) 10^9 L^–1 | Basophils (45 mg fed, 48 h): 0.03 (0.02) 10^9 L^–1 | Eosinophils (45 mg fed, 48 h): 0.20 (0.15) 10^9 L^–1 | Erythrocyte MCH (45 mg fed, 48 h): 30.2 (1.7) pg | Erythrocyte MCH concentration (45 mg fed, 48 h): 343 (8) g L^–1 | Erythrocyte MCV (45 mg fed, 48 h): 88.2 (5.8) fL | Erythrocytes (45 mg fed, 48 h): 4.89 (0.11) 10^12 L^–1 | Haematocrit (45 mg fed, 48 h): 0.43 (0.03) ratio | Haemoglobin (45 mg fed, 48 h): 148 (9) g L^–1 | Leukocytes (45 mg fed, 48 h): 5.93 (1.07) 10^9 L^–1 | Lymphocytes (45 mg fed, 48 h): 1.85 (0.77) 10^9 L^–1 | Monocytes (45 mg fed, 48 h): 0.40 (0.16) 10^9 L^–1 | Neutrophils (45 mg fed, 48 h): 3.35 (1.20) 10^9 L^–1 | Platelets (45 mg fed, 48 h): 233 (51) 10^9 L^–1 | Reticulocytes (45 mg fed, 48 h): 84.5 (7.9) 10^9 L^–1 | Basophils (45 mg fed, follow up): 0.04 (0.01) 10^9 L^–1 | Eosinophils (45 mg fed, follow up): 0.18 (0.12) 10^9 L^–1 | Erythrocyte MCH (45 mg fed, follow up): 30.7 (1.0) pg | Erythrocyte MCH concentration (45 mg fed, follow up): 347 (11) g L^–1 | Erythrocyte MCV (45 mg fed, follow up): 88.3 (5.1) fL | Erythrocytes (45 mg fed, follow up): 4.72 (0.16) 10^12 L^–1 | Haematocrit (45 mg fed, follow up): 0.42 (0.04) ratio | Haemoglobin (45 mg fed, follow up): 145 (9) g L^–1 | Leukocytes (45 mg fed, follow up): 6.37 (1.60) 10^9 L^–1 | Lymphocytes (45 mg fed, follow up): 1.79 (0.37) 10^9 L^–1 | Monocytes (45 mg fed, follow up): 0.39 (0.12) 10^9 L^–1 | Neutrophils (45 mg fed, follow up): 3.85 (1.22) 10^9 L^–1 | Platelets (45 mg fed, follow up): 250 (62) 10^9 L^–1 | Reticulocytes (45 mg fed, follow up): 82.9 (10.8) 10^9 L^–1 | Basophils (135 mg fasted, 24 h): 0.02 (0.01) 10^9 L^–1 | Eosinophils (135 mg fasted, 24 h): 0.11 (0.07) 10^9 L^–1 | Erythrocyte MCH (135 mg fasted, 24 h): 31.0 (0.4) pg | Erythrocyte MCH concentration (135 mg fasted, 24 h): 354 (5) g L^–1 | Erythrocyte MCV (135 mg fasted, 24 h): 87.5 (1.9) fL | Erythrocytes (135 mg fasted, 24 h): 4.69 (0.26) 10^12 L^–1 | Haematocrit (135 mg fasted, 24 h): 0.41 (0.02) ratio | Haemoglobin (135 mg fasted, 24 h): 145 (8) g L^–1 | Leukocytes (135 mg fasted, 24 h): 5.11 (1.13) 10^9 L^–1 | Lymphocytes (135 mg fasted, 24 h): 1.52 (0.40) 10^9 L^–1 | Monocytes (135 mg fasted, 24 h): 0.35 (0.12) 10^9 L^–1 | Neutrophils (135 mg fasted, 24 h): 3.00 (0.79) 10^9 L^–1 | Platelets (135 mg fasted, 24 h): 200 (25) 10^9 L^–1 | Reticulocytes (135 mg fasted, 24 h): 72.4 (19.9) 10^9 L^–1 | Basophils (135 mg fasted, 48 h): 0.03 (0.01) 10^9 L^–1 | Eosinophils (135 mg fasted, 48 h): 0.12 (0.07) 10^9 L^–1 | Erythrocyte MCH (135 mg fasted, 48 h): 30.9 (0.4) pg | Erythrocyte MCH concentration (135 mg fasted, 48 h): 353 (7) g L^–1 | Erythrocyte MCV (135 mg fasted, 48 h): 87.4 (1.6) fL | Erythrocytes (135 mg fasted, 48 h): 4.68 (0.30) 10^12 L^–1 | Haematocrit (135 mg fasted, 48 h): 0.41 (0.03) ratio | Haemoglobin (135 mg fasted, 48 h): 144 (9) g L^–1 | Leukocytes (135 mg fasted, 48 h): 5.28 (1.23) 10^9 L^–1 | Lymphocytes (135 mg fasted, 48 h): 1.66 (0.47) 10^9 L^–1 | Monocytes (135 mg fasted, 48 h): 0.37 (0.11) 10^9 L^–1 | Neutrophils (135 mg fasted, 48 h): 3.00 (0.83) 10^9 L^–1 | Platelets (135 mg fasted, 48 h): 202 (29) 10^9 L^–1 | Reticulocytes (135 mg fasted, 48 h): 70.1 (15.1) 10^9 L^–1 | Basophils (135 mg fasted, follow up): 0.03 (0.01) 10^9 L^–1 | Eosinophils (135 mg fasted, follow up): 0.14 (0.09) 10^9 L^–1 | Erythrocyte MCH (135 mg fasted, follow up): 30.8 (0.5) pg | Erythrocyte MCH concentration (135 mg fasted, follow up): 350 (11) g L^–1 | Erythrocyte MCV (135 mg fasted, follow up): 88.2 (1.7) fL | Erythrocytes (135 mg fasted, follow up): 4.62 (0.25) 10^12 L^–1 | Haematocrit (135 mg fasted, follow up): 0.41 (0.02) ratio | Haemoglobin (135 mg fasted, follow up): 143 (9) g L^–1 | Leukocytes (135 mg fasted, follow up): 6.80 (3.32) 10^9 L^–1 | Lymphocytes (135 mg fasted, follow up): 1.51 (0.26) 10^9 L^–1 | Monocytes (135 mg fasted, follow up): 0.48 (0.32) 10^9 L^–1 | Neutrophils (135 mg fasted, follow up): 4.46 (2.99) 10^9 L^–1 | Platelets (135 mg fasted, follow up): 218 (24) 10^9 L^–1 | Reticulocytes (135 mg fasted, follow up): 82.8 (19.3) 10^9 L^–1 | Basophils (405 mg fasted, 24 h): 0.04 (0.01) 10^9 L^–1 | Eosinophils (405 mg fasted, 24 h): 0.18 (0.15) 10^9 L^–1 | Erythrocyte MCH (405 mg fasted, 24 h): 30.8 (1.5) pg | Erythrocyte MCH concentration (405 mg fasted, 24 h): 345 (8) g L^–1 | Erythrocyte MCV (405 mg fasted, 24 h): 89.4 (3.8) fL | Erythrocytes (405 mg fasted, 24 h): 4.81 (0.31) 10^12 L^–1 | Haematocrit (405 mg fasted, 24 h): 0.43 (0.01) ratio | Haemoglobin (405 mg fasted, 24 h): 148 (6) g L^–1 | Leukocytes (405 mg fasted, 24 h): 5.53 (1.12) 10^9 L^–1 | Lymphocytes (405 mg fasted, 24 h): 1.40 (0.19) 10^9 L^–1 | Monocytes (405 mg fasted, 24 h): 0.34 (0.09) 10^9 L^–1 | Neutrophils (405 mg fasted, 24 h): 3.47 (0.79) 10^9 L^–1 | Platelets (405 mg fasted, 24 h): 190 (23) 10^9 L^–1 | Reticulocytes (405 mg fasted, 24 h): 68.5 (16.4) 10^9 L^–1 | Basophils (405 mg fasted, 48 h): 0.03 (0.01) 10^9 L^–1 | Eosinophils (405 mg fasted, 48 h): 0.24 (0.26) 10^9 L^–1 | Erythrocyte MCH (405 mg fasted, 48 h): 31.0 (1.6) pg | Erythrocyte MCH concentration (405 mg fasted, 48 h): 347 (7) g L^–1 | Erythrocyte MCV (405 mg fasted, 48 h): 89.4 (3.7) fL | Erythrocytes (405 mg fasted, 48 h): 4.67 (0.22) 10^12 L^–1 | Haematocrit (405 mg fasted, 48 h): 0.42 (0.01) ratio | Haemoglobin (405 mg fasted, 48 h): 145 (5) g L^–1 | Leukocytes (405 mg fasted, 48 h): 5.53 (1.14) 10^9 L^–1 | Lymphocytes (405 mg fasted, 48 h): 1.51 (0.30) 10^9 L^–1 | Monocytes (405 mg fasted, 48 h): 0.40 (0.14) 10^9 L^–1 | Neutrophils (405 mg fasted, 48 h): 3.22 (0.62) 10^9 L^–1 | Platelets (405 mg fasted, 48 h): 187 (20) 10^9 L^–1 | Reticulocytes (405 mg fasted, 48 h): 66.3 (20.0) 10^9 L^–1 | Basophils (405 mg fasted, follow up): 0.04 (0.01) 10^9 L^–1 | Eosinophils (405 mg fasted, follow up): 0.27 (0.27) 10^9 L^–1 | Erythrocyte MCH (405 mg fasted, follow up): 31.0 (1.1) pg | Erythrocyte MCH concentration (405 mg fasted, follow up): 345 (5) g L^–1 | Erythrocyte MCV (405 mg fasted, follow up): 89.8 (3.6) fL | Erythrocytes (405 mg fasted, follow up): 4.83 (0.35) 10^12 L^–1 | Haematocrit (405 mg fasted, follow up): 0.43 (0.02) ratio | Haemoglobin (405 mg fasted, follow up): 149 (8) g L^–1 | Leukocytes (405 mg fasted, follow up): 5.84 (1.41) 10^9 L^–1 | Lymphocytes (405 mg fasted, follow up): 1.43 (0.19) 10^9 L^–1 | Monocytes (405 mg fasted, follow up): 0.40 (0.08) 10^9 L^–1 | Neutrophils (405 mg fasted, follow up): 3.54 (1.02) 10^9 L^–1 | Platelets (405 mg fasted, follow up): 205 (21) 10^9 L^–1 | Reticulocytes (405 mg fasted, follow up): 78.6 (19.4) 10^9 L^–1
